Measurements taken from the NIST ThermoML archive (doi:10.1021/je060271a).

Settings: 323.14 K, Liquid, Vibrating tube method

CCCC(=O)OCC(COC(=O)CCC)(COC(=O)CCC)COC(=O)CCC [pentaerythritol tetrabutyrate]
Settings | mass density [kg/m3]
17664 kPa | 1037.3
17706 kPa | 1037.2
17742 kPa | 1037.4
17779 kPa | 1037.3
17823 kPa | 1037.3
17860 kPa | 1037.3
17896 kPa | 1037.3
17933 kPa | 1037.5
17977 kPa | 1037.4
18014 kPa | 1037.5
18060 kPa | 1037.4
18099 kPa | 1037.5
18137 kPa | 1037.5
18184 kPa | 1037.6
18224 kPa | 1037.5
18264 kPa | 1037.7
18304 kPa | 1037.6
18346 kPa | 1037.8
18376 kPa | 1037.8
18470 kPa | 1037.7
18504 kPa | 1037.6
18534 kPa | 1037.7
18564 kPa | 1037.8
18600 kPa | 1037.9
18629 kPa | 1037.8
18660 kPa | 1037.9
18695 kPa | 1037.8
18793 kPa | 1037.9
18818 kPa | 1038
18855 kPa | 1038
18891 kPa | 1038
18922 kPa | 1037.9
18954 kPa | 1038
18986 kPa | 1038.2
19023 kPa | 1038
19055 kPa | 1038
19093 kPa | 1038.2
19125 kPa | 1038.1
19157 kPa | 1038.1
19219 kPa | 1038.2
19363 kPa | 1038.3
19716 kPa | 1038.6
19756 kPa | 1038.7
19790 kPa | 1038.6
19824 kPa | 1038.7
19866 kPa | 1038.6
19901 kPa | 1038.7
19935 kPa | 1038.8
20012 kPa | 1038.8
20274 kPa | 1038.9
20318 kPa | 1038.9
20356 kPa | 1038.9
20392 kPa | 1038.9
20429 kPa | 1039.1
20472 kPa | 1039.1
20510 kPa | 1039
20629 kPa | 1039.2
20667 kPa | 1039.1
20706 kPa | 1039.2
20751 kPa | 1039.2
20789 kPa | 1039.2
20828 kPa | 1039.3
20869 kPa | 1039.3
20908 kPa | 1039.4
20954 kPa | 1039.3
20992 kPa | 1039.4
21039 kPa | 1039.3
21079 kPa | 1039.4
21117 kPa | 1039.6
21156 kPa | 1039.4
21204 kPa | 1039.5
21243 kPa | 1039.5
21283 kPa | 1039.5
21333 kPa | 1039.5
21374 kPa | 1039.6
21416 kPa | 1039.6
21465 kPa | 1039.7
21508 kPa | 1039.7
21593 kPa | 1039.7
22639 kPa | 1040.4
22677 kPa | 1040.4
22723 kPa | 1040.4
22761 kPa | 1040.5
22807 kPa | 1040.5
22845 kPa | 1040.5
22884 kPa | 1040.5
22932 kPa | 1040.5
22972 kPa | 1040.6
23010 kPa | 1040.7
23051 kPa | 1040.6
23098 kPa | 1040.7
23137 kPa | 1040.7
23185 kPa | 1040.7
23224 kPa | 1040.8
23265 kPa | 1040.8
23314 kPa | 1040.8
23354 kPa | 1040.9
23396 kPa | 1040.8
23445 kPa | 1040.8
23487 kPa | 1041
23528 kPa | 1040.9
23578 kPa | 1041
23620 kPa | 1041
23662 kPa | 1041.1
23705 kPa | 1041
23756 kPa | 1041.1
23800 kPa | 1041.1
24059 kPa | 1041.3
24170 kPa | 1041.4
24213 kPa | 1041.4
24248 kPa | 1041.5
24441 kPa | 1041.6
24478 kPa | 1041.6
24516 kPa | 1041.6
24554 kPa | 1041.6
24598 kPa | 1041.7
24634 kPa | 1041.6
24671 kPa | 1041.6
24708 kPa | 1041.8
24752 kPa | 1041.8
24955 kPa | 1041.8
24993 kPa | 1041.9
25031 kPa | 1041.9
25070 kPa | 1041.9
25108 kPa | 1041.9
25155 kPa | 1042.1
25193 kPa | 1042
25232 kPa | 1042
25278 kPa | 1042
25825 kPa | 1042.4
25865 kPa | 1042.5
25913 kPa | 1042.5
25954 kPa | 1042.5
25996 kPa | 1042.5
26045 kPa | 1042.6
26086 kPa | 1042.6
26129 kPa | 1042.6
26170 kPa | 1042.7
26220 kPa | 1042.7
26262 kPa | 1042.7
26305 kPa | 1042.7
26355 kPa | 1042.7
26397 kPa | 1042.8
26448 kPa | 1042.8
26490 kPa | 1042.8
26533 kPa | 1042.9
